Results published in US20230047825A1, “ANTIMICROBIAL PEPTIDES” (priority 2019, published 2023).
≈ marks a conversion by molar mass, not a printed value. Where “and” joins values, the source holds several entries; their conditions need not be identical. Equal values may be shown once. Marks after values point to notes of the source that are not given here. Where a SMILES comes first, the peptide text is derived from it.

Legend:
[1] = Maximum Tolerated Dose (MTD) assessment, IV TID q8h: mortality, body weight, clinical observations; type: in vivo, mouse; parameters: key to Irritability / Hyperactivity / Inc. Startle / Inc. Touch / Dec. Startle Response / Dec. Touch Response / Inc. Exploration / Dec. Exploration / Pinna / Placing / Tremor / Dec. Spont. Activity / Straub Tail / Reactivity / Righting / Ataxia / Convulsion C.T.C-T / Low Limb Post / Abdominal Tone / Limb Tone / Grip Strength / Salivation F.V. / Lacrimation / Diarrhea / Body Temperature / Piloerection / Inc. Palpebral Size / Dec. Palpebral Size / Others / Death: “−” no effects; “±”: Slight to moderate effects; +: Severe effects; “C.”: Cyanosis; “D.”: Depth; E: Edema; conditions: for Body Weight, individual animals No. 1-4 / Mortality (total number of deaths/total number of animals): IV; for Body Temperature / Death / Dec. Palpebral Size / Diarrhea / Inc. Palpebral Size / Lacrimation / Others / Piloerection / Respiration / Salivation F.V. / Skin Color: AUTONOMIC; for Body Temperature / Death / Dec. Palpebral Size / Diarrhea / Inc. Palpebral Size / Lacrimation / Others / Piloerection / Respiration / Salivation F.V. / Skin Color / Dec. Exploration / Dec. Startle Response / Dec. Touch Response / Hyperactivity / Inc. Exploration / Inc. Startle / Inc. Touch / Irritability / Pinna / Placing / Ataxia / Convulsion C.T.C-T / Dec. Spont. Activity / Grip Strength / Limb Tone / Low Limb Post / Reactivity / Righting / Straub Tail / Tremor / Abdominal Tone: 5 minutes after 1st dosing, ICR mice, animals No. 1-4; for Dec. Exploration / Dec. Startle Response / Dec. Touch Response / Hyperactivity / Inc. Exploration / Inc. Startle / Inc. Touch / Irritability / Pinna / Placing: BEHAVIORAL; for Ataxia / Convulsion C.T.C-T / Dec. Spont. Activity / Grip Strength / Limb Tone / Low Limb Post / Reactivity / Righting / Straub Tail / Tremor / Abdominal Tone: NEUROLOGIC
Description: Tolerability analysis was conducted to determine the upper limit of D-PLEUROCIDIN-KR dosage. Test article solutions were intravenously (IV) administered to immunocompetent ICR mice with the dose schedule and concentrations indicated in the study design in the table below.
The animals were not infected. Doses were IV administered thrice (TID) with 8 h intervals (q8h) between doses. Animals were humanely euthanized after 3 days of the last treatment or at humane endpoints.
The MTD assessment was performed with immunocompetent female ICR mice, weighing 22 f 2 g. All animals were specific pathogen free.
Test articles were administered to animals by IV injections following the dose schedule, volumes, and concentrations indicated the Table above for MTD study. […] Animals were humanely euthanized if severe acute toxicity was observed during the experimental period.
The adverse effects were monitored at 5 minutes via cage-side observation after each subsequent IV administration on Day 1. Animals were observed again for mortality at 72 h after the last treatment. Body weights were recorded before each treatment and at 72 h after the last treatment. If overt toxicity was observed after the 1st or 2nd dose of a group, the 2nd or 3rd dose of that group was not administered.
Any adverse events observed were summarized. List of scores from observation assessments were also recorded.

[2] = tested on: Staphylococcus aureus ATCC 19636 (Smith); experiment: microbe, parasite or virus in culture; conditions: ATCC 19636
Description: The S. aureus strains ATCC 29213, ATCC 19636, ATCC 33591 (MRSA), BAA-1556 (MRSA USA 300) were obtained from the American Type Culture Collection (ATCC). […] The species identity was confirmed with 16S rRNA analysis.
Two broth mediums were used, Mueller Hinton Broth and RPMI 1640+5% fetal bovine serum. Test substances were evaluated in 11-point titrations and performed in duplicate.
The direct colony suspension method was used to prepare inoculated broth. Isolated colonies were taken from an 18-24 h culture plate. Optical density measurements (OD620nm) were used to estimate the bacterial density. […] The stock solutions were diluted by 2-fold serial titrations with their respective vehicles for a total of 11 concentrations.
A 4 μL aliquot of each dilution was added to 196 μL of broth medium seeded with the organism in wells of a sterilized 96 well polypropylene plate (Nunc™ 249949) using aluminum foil as cover. The final bacterial count was 2 to 8×10^5 CFU/mL. […] The final test article concentration range was 32 to 0.0313 μg/mL.
Each test substance dilution was evaluated in duplicate on one test occasion. […] Plates were incubated at 35-37° C. for 18 h. The test plates were visually examined and each well was visually scored for growth or complete inhibition of growth. The MIC value was recorded.

[3] = 5 mg/kg, TID q8h, 24 h of 3rd dosing
[4] = 5 mg/kg, TID q8h, 48 h of 3rd dosing
[5] = 5 mg/kg, TID q8h, 72 h of 3rd dosing
[6] = 10 mg/kg, 24 h of 3rd dosing (2nd and 3rd doses not administered)
[7] = 10 mg/kg, 48 h of 3rd dosing (2nd and 3rd doses not administered)
[8] = 10 mg/kg, 72 h of 3rd dosing (2nd and 3rd doses not administered)

CC(C)C[C@@H](NC(=O)[C@@H](Cc1ccc(O)cc1)NC(=O)[C@@H](Cc1c[nH]cn1)NC(=O)[C@H](NC(=O)[C@@H](CC(C)C)NC(=O)[C@@H](C)NC(=O)[C@@H](C)NC(=O)[C@@H](CCCNC(=N)N)NC(=O)CNC(=O)[C@H](NC(=O)[C@@H](Cc1c[nH]cn1)NC(=O)[C@@H](CCCNC(=N)N)NC(=O)CNC(=O)[C@H](NC(=O)[C@@H](Cc1c[nH]cn1)NC(=O)[C@@H](C)NC(=O)[C@@H](C)NC(=O)[C@@H](CCCNC(=N)N)NC(=O)[C@@H](CCCNC(=N)N)NC(=O)[C@@H](Cc1ccccc1)NC(=O)[C@@H](Cc1ccccc1)NC(=O)[C@@H](CO)NC(=O)CNC(=O)[C@@H](Cc1c[nH]c2ccccc12)NC(=O)CN)C(C)C)C(C)C)[C@H](C)O)C(N)=O [D-pleurocidin-KR] (HELM PEPTIDE1{G.[dW].G.[dS].[dF].[dF].[dR].[dR].[dA].[dA].[dH].[dV].G.[dR].[dH].[dV].G.[dR].[dA].[dA].[dL].[dT].[dH].[dY].[dL].[am]}$$$$V2.0; N-terminus assumed)
adverse effects after the first dose administration ([1]; 5 mg/kg): severe cyanosis, labored respiration and edema
Body Weight, individual animals No. 1-4 ([1]; 5 mg/kg, TID q8h, 1st dosing (recorded before treatment)): 25 g (3×) and 23 g
Body Weight, individual animals No. 1-4 ([1]; 5 mg/kg, TID q8h, 2nd dosing): 25 g (3×) and 23 g
Body Weight, individual animals No. 1-4 ([1]; 5 mg/kg, TID q8h, 3rd dosing): 25 g and 24 g (2×) and 23 g
Body Weight, individual animals No. 1-4 [1, 3]: 26 g and 25 g (2×) and 23 g
Mortality (total number of deaths/total number of animals) [1, 3]: 0/4
Body Weight, individual animals No. 1-4 [1, 4]: 25 g (3×) and 23 g
Mortality (total number of deaths/total number of animals) [1, 4]: 0/4
Body Weight, individual animals No. 1-4 [1, 5]: 26 g (3×) and 24 g
Mortality (total number of deaths/total number of animals) [1, 5]: 0/4
Mortality (total number of deaths/total number of animals) ([1]; 5 mg/kg, TID, q8h, 5 min of 1st dosing): 0/4
Mortality (total number of deaths/total number of animals) ([1]; 5 mg/kg, TID, q8h, 5 min of 2nd dosing): 0/4
Mortality (total number of deaths/total number of animals) ([1]; 5 mg/kg, TID, q8h, 5 min of 3rd dosing): 0/4
Mortality (total number of deaths/total number of animals) ([1]; 5 mg/kg, TID, q8h, 1 h of 1st dosing): 0/4
Mortality (total number of deaths/total number of animals) ([1]; 5 mg/kg, TID, q8h, 1 h of 2nd dosing): 0/4
Mortality (total number of deaths/total number of animals) ([1]; 5 mg/kg, TID, q8h, 1 h of 3rd dosing): 0/4
mortality after the 1st dosing ([1]; 10 mg/kg): one of the four animals was found dead
Body Weight, individual animals No. 1-4 ([1]; 10 mg/kg, 1st dosing (recorded before treatment)): 22 g (2×) and 23 g (2×)
Body Weight, individual animals No. 1-4 ([1]; 10 mg/kg, 2nd dosing (2nd and 3rd doses not administered)): 21 g (2×) and dead and 23 g
Body Weight, individual animals No. 1-4 ([1]; 10 mg/kg, 3rd dosing (2nd and 3rd doses not administered)): 21* g (2×) and 23* g
Mortality (total number of deaths/total number of animals) ([1]; 10 mg/kg, 5 min of 1st dosing): 0/4
Mortality (total number of deaths/total number of animals) ([1]; 10 mg/kg, 5 min of 2nd dosing (2nd and 3rd doses not administered)): 1/4
Mortality (total number of deaths/total number of animals) ([1]; 10 mg/kg, 5 min of 3rd dosing (2nd and 3rd doses not administered)): 1/4
Mortality (total number of deaths/total number of animals) ([1]; 10 mg/kg, 1 h of 1st dosing): 1/4
Mortality (total number of deaths/total number of animals) ([1]; 10 mg/kg, 1 h of 2nd dosing (2nd and 3rd doses not administered)): 1/4
Mortality (total number of deaths/total number of animals) ([1]; 10 mg/kg, 1 h of 3rd dosing (2nd and 3rd doses not administered)): 1/4
Body Weight, individual animals No. 1-4 [1, 6]: 21* g (2×) and 24* g
Mortality (total number of deaths/total number of animals) [1, 6]: 1/4
Body Weight, individual animals No. 1-4 [1, 7]: 21* g (2×) and 24* g
Mortality (total number of deaths/total number of animals) [1, 7]: 1/4
Body Weight, individual animals No. 1-4 [1, 8]: 22* g (2×) and 23* g
Mortality (total number of deaths/total number of animals) [1, 8]: 1/4
tolerability i.v. in ICR mice ([1]; 15 mg/kg/24h i.v. (data not shown)): tolerated
Body Weight, individual animals No. 1-4 ([1]; 30 mg/kg, 1st dosing (recorded before treatment)): 21 g and 22 g and 23 g and 24 g
Body Weight, individual animals No. 1-4 ([1]; 30 mg/kg, 2nd dosing): dead
Mortality (total number of deaths/total number of animals) ([1]; 30 mg/kg, 5 min of 1st dosing): All animals were found dead and 4/4
Mortality (total number of deaths/total number of animals) ([1]; 30 mg/kg, 1 h of 1st dosing): All dead
Mortality (total number of deaths/total number of animals) ([1]; 30 mg/kg, 1 h of 3rd dosing): All dead
tolerability ([1]; 10 and 30 mg/kg dosages): not tolerated
Body Temperature ([1]; 5 mg/kg IV): −
Death ([1]; 5 mg/kg IV): −
Dec. Palpebral Size ([1]; 5 mg/kg IV): −
Diarrhea ([1]; 5 mg/kg IV): −
Inc. Palpebral Size ([1]; 5 mg/kg IV): −
Lacrimation ([1]; 5 mg/kg IV): −
Others ([1]; 5 mg/kg IV): E
Piloerection ([1]; 5 mg/kg IV): −
Respiration ([1]; 5 mg/kg IV): D±
Salivation F.V. ([1]; 5 mg/kg IV): −
Skin Color ([1]; 5 mg/kg IV): C±
Body Temperature ([1]; 10 mg/kg IV): −
Death ([1]; 10 mg/kg IV): −
Dec. Palpebral Size ([1]; 10 mg/kg IV): −
Diarrhea ([1]; 10 mg/kg IV): −
Inc. Palpebral Size ([1]; 10 mg/kg IV): −
Lacrimation ([1]; 10 mg/kg IV): −
Others ([1]; 10 mg/kg IV): E
Piloerection ([1]; 10 mg/kg IV): −
Respiration ([1]; 10 mg/kg IV): D±
Salivation F.V. ([1]; 10 mg/kg IV): −
Skin Color ([1]; 10 mg/kg IV): C±
Death ([1]; 30 mg/kg IV): +
Dec. Exploration ([1]; 5 mg/kg IV): −
Dec. Startle Response ([1]; 5 mg/kg IV): −
Dec. Touch Response ([1]; 5 mg/kg IV): −
Hyperactivity ([1]; 5 mg/kg IV): −
Inc. Exploration ([1]; 5 mg/kg IV): −
Inc. Startle ([1]; 5 mg/kg IV): −
Inc. Touch ([1]; 5 mg/kg IV): −
Irritability ([1]; 5 mg/kg IV): −
Pinna ([1]; 5 mg/kg IV): −
Placing ([1]; 5 mg/kg IV): −
Hyperactivity ([1]; 10 mg/kg IV): −
Inc. Exploration ([1]; 10 mg/kg IV): −
Inc. Startle ([1]; 10 mg/kg IV): −
Inc. Touch ([1]; 10 mg/kg IV): −
Irritability ([1]; 10 mg/kg IV): −
Dec. Exploration ([1]; 10 mg/kg IV, 10 mg/kg): ± and +
Dec. Startle Response ([1]; 10 mg/kg IV, 10 mg/kg): − and ±
Dec. Touch Response ([1]; 10 mg/kg IV, 10 mg/kg): ± and +
Pinna ([1]; 10 mg/kg IV, 10 mg/kg): ± and +
Placing ([1]; 10 mg/kg IV, 10 mg/kg): ± and −
Ataxia ([1]; 5 mg/kg IV): −
Convulsion C.T.C-T ([1]; 5 mg/kg IV): −
Dec. Spont. Activity ([1]; 5 mg/kg IV): −
Grip Strength ([1]; 5 mg/kg IV): −
Limb Tone ([1]; 5 mg/kg IV): −
Low Limb Post ([1]; 5 mg/kg IV): −
Reactivity ([1]; 5 mg/kg IV): −
Righting ([1]; 5 mg/kg IV): −
Straub Tail ([1]; 5 mg/kg IV): −
Tremor ([1]; 5 mg/kg IV): −
Abdominal Tone ([1]; 5 mg/kg IV, 5 mg/kg): − and ±
Ataxia ([1]; 10 mg/kg IV): ±
Convulsion C.T.C-T ([1]; 10 mg/kg IV): −
Dec. Spont. Activity ([1]; 10 mg/kg IV): ±
Limb Tone ([1]; 10 mg/kg IV): +
Reactivity ([1]; 10 mg/kg IV): −
Righting ([1]; 10 mg/kg IV): −
Straub Tail ([1]; 10 mg/kg IV): −
Tremor ([1]; 10 mg/kg IV): −
Abdominal Tone ([1]; 10 mg/kg IV, 10 mg/kg): − and + and ±
Grip Strength ([1]; 10 mg/kg IV, 10 mg/kg): ± and −
Low Limb Post ([1]; 10 mg/kg IV, 10 mg/kg): ± and −
in vivo therapeutic index ([1]; before dose optimisation, tolerated dose vs effective dose): approximately 20 fold
MIC [2]: 2 µg/mL (≈ 0.709 µM)
